Tests used:
[1] = Chelation studies: UV-Vis titration and Job's plot; assay type: physicochemical; conditions: for chelating ability on the biometals Fe^3+, Cu^2+ and Zn^2+: UV-Vis spectra in MeOH, ligand/metal ratio 1:3, 1:5 or 1:10
Description: Initially, the UV–Vis spectrum of the ligand was recorded and compared with the spectra obtained by adding an excess of metal to the ligand solution, maintaining the same concentration of the ligand (ligand/metal ratio 1:3, 1:5 or 1:10). The variation of the UV–Vis spectrum of the ligand in presence of metal ions is indicative of the formation of the complex. […] As previously supposed, the chelating activity of these compounds is due to the presence of two adjacent nitrogen atoms in the 2-amino-pyridine moiety.
UV–Vis titrations of these compounds were carried out with the metal ions with which they form complexes, recording first the UV–Vis spectrum of the ligand and then the spectra obtained by mixing solutions of ligand and metal according to increasing metal/ligand molar ratios (Figure 7a).
The stoichiometries of metal–ligand complexes were determined through Job’s method.
The mole fraction X, which causes the maximum variation of absorbance, is extracted from the graph and then the value of the coefficient n, which corresponds to the number of ligand molecules per cation, is obtained (Figure 7b). The UV–Vis titrations spectra and the Job’s plots of all tested compound are reported in the Supplementary Materials (Figures S8–S17), while the data extrapolated from Job’s plots are summarized in Table 5.
For the UV–Vis titration, solutions 10^−3 M in MeOH of compounds 12, 14 and 18 were prepared. […]. UV–Vis spectra were recorded from 210 to 450 nm.
For the first measure, 150 µL of ligand solution were diluted in 2.85 mL of MeOH into sample cuvette, while only MeOH was placed in reference cuvette and the UV–Vis spectrum was recorded. For subsequent measurements, 2.85 mL of the opportune metal solution were placed both in a sample cuvette and in a reference cuvette; then 150 µL of ligand solution were added to a sample cuvette, while 150 µL of MeOH were added to the reference cuvette and the UV–Vis spectra were recorded. The spectra thus obtained were superimposed to observe the variations present between the ligand alone and in presence of increasing amount of metal.
To determine the stoichiometric coefficients of the complexes, Job’s method was used, which requires the mixing, in appropriate proportions, of the equimolar solution of metal ion and ligand, so that the final volume and the total moles present in the cuvette are equal for each measurement. The absorbance values were recorded at the wavelengths, extrapolated from the UV–Vis titration spectra, where the maximum variation of absorbance was observed. At the same time two solutions in MeOH of equal concentration were prepared, one of ligand and one of metal ion, diluting the solutions 1 M of CuSO4·5H2O and Zn(NO3)2·6H2O and 0.1 M of FeCl3·6H2O previously prepared. The concentrations of the solutions used and the wavelengths in which the absorbance was recorded were: 2.96·10^−4 M for 12 and Fe^3+–251, 320 nm; 2.83·10^−4 M for 14 and Fe^3+–250, 310 nm; 2.90·10^−4 M for 18 and Fe^3+–245, 310 nm; 6.00·10^−4 M for 18 and Cu^2+–330 nm.
For each determination 9–20 measurements were made, introducing the appropriate volumes of metal and ligand solutions in the sample cuvette to obtain mole fractions of the ligand in the range 0.1–0.9, while appropriate volumes of ligand solution and MeOH were placed in the reference cuvette, to obtain the same concentration of ligand in the sample cuvette. The absorbance values of the metal ion, calculated by the Lambert–Beer relation, known the extinction coefficients ε of the metal ion at used wavelengths and the nominal concentrations of the metal ion for each measure, were algebraically subtracted from the recorded absorbance values, in order to obtain the exclusive absorbance variations due to the complex formation. […]

Aβ42 peptide = biological target: T1, Aβ42 peptide (Homo sapiens, UniProt P05067); test: Inhibition of Aβ42 aggregation in intact E. coli cells, thioflavin-S staining; assay type: cell-based, Escherichia coli; conditions: [I] = 100 µM, E. coli cells overexpressing Aβ42
T1 construct: expressed in transfected cells; host or cells: E. coli BL21 (DE3), pET28a vector
T1 sequence (P05067 672-713 limits assumed): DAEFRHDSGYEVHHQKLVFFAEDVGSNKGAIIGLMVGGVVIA
Description: For compounds 12, 14 and 18, the inhibitory activity against Aβ42 and tau aggregation was evaluated. The anti-aggregating effect of tested compounds was monitored by a cell-based assay in intact Escherichia coli cells that overexpress either Aβ42 peptide or tau protein, which, upon expression, form insoluble inclusion bodies that were stained with thioflavin-S [42]. The percentages of inhibition towards Aβ42 and tau aggregation were determined at an inhibitor concentration of 100 µM and the obtained results are reported in Table 6. In general, these compounds show a weak anti-aggregating activity; among these, the pyridine carbamate 18 is the best inhibitor of aggregation of both Aβ42 and tau.
E. coli competent cells BL21 (DE3) were transformed with the pET28a vector (Novagen, Inc., Madison, WI, USA) carrying the DNA sequence of Aβ42. Because of the addition of the initiation codon ATG in front of both genes, the overexpressed peptide contains an additional methionine residue at its N terminus. For overnight culture preparation, an amount of 10 mL of the M9 minimal medium containing 50 μg·mL^−1 of kanamycin was inoculated with a colony of BL21 (DE3) bearing the plasmid to be expressed at 37 °C. […]
Th-S (T1892) and other chemical reagents were purchased from Sigma (St. Louis, MO, USA). […] Th-S fluorescence and absorbance were tracked using a DTX 800 plate reader Multimode Detector equipped with a Multimode Analysis Software (Beckman-Coulter, Indianapolis, IN, USA). […] A filter of 535/25 nm was also used for the absorbance determination. To normalize the Th-S fluorescence as a function of the bacterial concentration, OD600 was obtained using a Shimadzu UV-2401 PC UV–Vis spectrophotometer (Shimadzu, Japan). Note that the fluorescence normalisation was carried out considering 100% of the Th-S fluorescence of the bacterial cells expressing the peptide or protein in the absence of the drug and 0% of the Th-S fluorescence of the bacterial cells not expressing the peptide or protein. […]

Structure (SMILES)	X (mole fraction that causes the maximum variation of absorbance), Cu^2+ ([1]; Job's plot, Cu^2+)	n (number of ligand molecules per cation), Cu^2+ ([1]; Job's plot, Cu^2+)	X (mole fraction that causes the maximum variation of absorbance), Fe^3+ ([1]; Job's plot)	n (number of ligand molecules per cation), Fe^3+ ([1]; Job's plot)	chelating ability on the biometals Fe^3+, Cu^2+ and Zn^2+ [1]	inhibition at 100 µM (Aβ42 peptide)
O=C(NCCCCCCNc1ccccn1)Oc1ccccc1 [Compound 18, Phenyl (6-(pyridin-2-ylamino)hexyl)carbamate]	0.49	1	0.69	2	ability to chelate Fe^3+ and Cu^2+ ions	23.1%
O=C(NCCCCCCNc1ccccn1)c1ccccc1 [Compound 12, N-(6-(pyridin-2-ylamino)hexyl)benzamide]	–	–	0.69	2	ability to chelate Fe^3+ and Cu^2+ ions	11.9%
O=C(Cc1ccc(Oc2ccccc2)cc1)NCCCCCCNc1ccccn1 [Compound 14, 2-(4-phenoxyphenyl)-N-(6-(pyridin-2-ylamino)hexyl)acetamide]	–	–	0.70	2	ability to chelate Fe^3+ and Cu^2+ ions	13.3%

From PMC9227096, “Design, Synthesis, and In Vitro, In Silico and In Cellulo Evaluation of New Pyrimidine and Pyridine Amide and Carbamate Derivatives as Multi-Functional Cholinesterase Inhibitors” (Pharmaceuticals, 2022)
